What follows are compounds tested against T1, A9L-m1 (Homo sapiens, UniProt P11229) (assay: m1 secondary assay: PI stimulation in A9L-m1). Details: A9L-m1, relative to carbachol; read-out: Pl stim. A9L-m1 % Max of carbachol.
T1 sequence (P11229 1-460): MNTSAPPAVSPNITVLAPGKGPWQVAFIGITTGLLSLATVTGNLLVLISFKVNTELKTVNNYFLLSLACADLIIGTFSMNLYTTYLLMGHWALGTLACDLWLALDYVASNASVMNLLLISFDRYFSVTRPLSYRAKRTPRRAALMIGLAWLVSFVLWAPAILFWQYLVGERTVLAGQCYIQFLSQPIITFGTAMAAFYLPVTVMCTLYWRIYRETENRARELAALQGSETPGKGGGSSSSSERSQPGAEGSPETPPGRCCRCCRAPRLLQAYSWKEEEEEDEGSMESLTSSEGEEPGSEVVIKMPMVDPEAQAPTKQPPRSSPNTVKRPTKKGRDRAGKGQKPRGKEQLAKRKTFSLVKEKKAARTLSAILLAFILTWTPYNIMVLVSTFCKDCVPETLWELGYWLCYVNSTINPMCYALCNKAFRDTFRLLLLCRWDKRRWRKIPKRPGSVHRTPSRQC
Assay type: cell-based

SMILES | Emax
Cc1cc(C(=O)NC2c3cc(/N=C/N4CCCC4)ccc3C[C@@H]2O)ccc1Br (stereo partly drawn) [Compound 129] | 42%
Cc1ccc(C(=O)NC2c3cc(/N=C/N4CCCC4)ccc3C[C@@H]2O)cc1I (stereo partly drawn) [Compound 130] | 64%
O=C(NC1c2cc(/N=C/N3CCCC3)ccc2C[C@@H]1O)c1ccc(F)c(Cl)c1 (stereo partly drawn) [Compound 133] | 40%

Same assay, conditions: A9L-m1; read-out: ED-50 Pl stim A9L-m1, nm

SMILES | EC50
Cc1cc(C(=O)NC2c3cc(/N=C/N4CCCC4)ccc3C[C@@H]2O)ccc1Br (stereo partly drawn) [Compound 129] | 41.3 nM
Cc1ccc(C(=O)NC2c3cc(/N=C/N4CCCC4)ccc3C[C@@H]2O)cc1I (stereo partly drawn) [Compound 130] | 9.2 nM
O=C(NC1c2cc(/N=C/N3CCCC3)ccc2C[C@@H]1O)c1ccc(F)c(Cl)c1 (stereo partly drawn) [Compound 133] | 190 nM

Each compound was assayed against T2, human m4 receptors (Homo sapiens, UniProt P08173) (assay: Stimulation of cyclic AMP production in pertussis toxin-treated CHO-m4 cells). Details: forskolin present.
T2 construct: expressed in transfected cells; host or cells: CHO K1 cells
T2 sequence (P08173 whole entry): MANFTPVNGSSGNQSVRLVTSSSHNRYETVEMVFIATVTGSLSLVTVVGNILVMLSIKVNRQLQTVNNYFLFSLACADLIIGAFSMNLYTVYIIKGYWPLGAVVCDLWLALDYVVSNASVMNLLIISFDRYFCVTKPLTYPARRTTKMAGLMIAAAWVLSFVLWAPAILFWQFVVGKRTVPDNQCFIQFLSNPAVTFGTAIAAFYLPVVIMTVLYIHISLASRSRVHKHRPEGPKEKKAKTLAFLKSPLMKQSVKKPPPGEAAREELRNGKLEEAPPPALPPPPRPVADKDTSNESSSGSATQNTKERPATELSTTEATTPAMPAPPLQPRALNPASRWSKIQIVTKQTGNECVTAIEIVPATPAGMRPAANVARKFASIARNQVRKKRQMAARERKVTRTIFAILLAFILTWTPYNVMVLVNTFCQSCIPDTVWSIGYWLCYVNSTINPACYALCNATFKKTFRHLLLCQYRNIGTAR
Assay type: cell-based
Method: Cyclic AMP Accumulation in Pertussis Toxin-Treated CHO m4 Cells. CHO K1 cells transfected with human m4 receptors were grown to near confluency in T-150 flasks using Dulbecco's Modified Eagle Medium (DMEM) containing 10% fetal bovine serum. Cells were detached with 0.05% trypsin, 0.53 mM EDTA, and were suspended in medium containing 100 ng/ml pertussis toxin. Cells were plated at 30,000 cells per well into 96 well plates. Eighteen to twenty hours later the medium was removed and the cells were washed with serum-bee medium. Attached cells were incubated at 37 C for one hour after addition of […] of serum free DMEM containing 1 mM 3-isobutyl-1-methylxanthine and 1 mM forskolin plus or minus drugs being tested. Incubations were terminated with […] per well of serum free DMEM containing 0.3% triton-X-100. After stopping incubations the plates were allowed to sit for 20 minutes to extract cAMP and samples were then diluted 2.5-fold and were assayed using the scintillation proximity assay of Amersham (Arlington Heights, Ill.).
Representative results from the M4 assay are as follows
Stimulation of cyclic AMP production in CHO-m4 cells.

SMILES | % Maximum Stimulation Compared to Oxotremorine-M
CN(C)C=Nc1ccc2c(c1)[C@@H](NC(=O)c1ccc(Cl)nc1)[C@H](O)C2 [Compound 74] | 8%
O=C(NC1c2cc(N=CN3CCCC3)ccc2CC1O)c1cccc2ccccc12 (stereo not drawn) [Compound 15] | 76%
CN(C)C=Nc1ccc2c(c1)[C@@H](NC(=O)c1cc(F)c(F)c(F)c1)[C@H](O)C2 [Compound 65] | 30%
O=C(NC1c2cc(N=CN3CCCC3)ccc2CC1O)c1ccccc1C(F)(F)F (stereo not drawn) [Compound 35] | 65%
CN(C)C=Nc1ccc2c(c1)[C@@H](NC(=O)c1cccnc1Cl)[C@H](O)C2 [Compound 73] | 11%
CN(C)C=Nc1ccc2c(c1)[C@@H](NC(=O)c1cccc(C#N)c1)[C@H](O)C2 [Compound 61] | 39%
CN(C)C=Nc1ccc2c(c1)[C@@H](NC(=O)C1CCCC1)[C@H](O)C2 [Compound 62] | 27%
O=C(NC1c2cc(N=CN3CCCC3)ccc2CC1O)c1ccc([N+](=O)[O-])cc1Cl (stereo not drawn) [Compound 20] | 69%
O=C(N[C@@H]1c2cc(N=CN3CCCCC3)ccc2C[C@H]1O)c1cc(Cl)cc(Cl)c1 [Compound 97] | 36%
O=C(NC1c2cc(N=CN3CCCC3)ccc2CC1O)C1CCC1 (stereo not drawn) [Compound 41] | <20%
O=C(NC1c2cc(N=CN3CCCC3)ccc2CC1O)c1cccc(F)c1F (stereo not drawn) [Compound 24] | 22%
O=C(N[C@@H]1c2cc(N=CN3CCCCC3)ccc2C[C@H]1O)c1cccc(Cl)c1Cl [Compound 88] | 52%
O=C(NC1c2cc(N=CN3CCCC3)ccc2CC1O)c1cccc([N+](=O)[O-])c1 (stereo not drawn) [Compound 25] | 43%
CCc1ccc(C(=O)N[C@@H]2c3cc(N=CN(C)C)ccc3C[C@H]2O)cc1 [Compound 67] | 7%
O=C(NC1c2cc(N=CN3CCCC3)ccc2CC1O)c1ccc(C(F)(F)F)cc1 (stereo not drawn) [Compound 18] | 61%
O=C(NC1c2cc(N=CN3CCCC3)ccc2CC1O)C1CCCCC1 (stereo not drawn) [Compound 11] | 34%
O=C(N[C@@H]1c2cc(N=CN3CCCCC3)ccc2C[C@H]1O)c1ccc(Cl)c(Cl)c1 [Compound 77] | 214%
O=C(NC1c2cc(N=CN3CCCC3)ccc2CC1O)c1cc(Cl)cc(Cl)c1 (stereo not drawn) [Compound 14] | 100%
CN(C)C=Nc1ccc2c(c1)[C@@H](NC(=O)c1cc3ccccc3s1)[C@H](O)C2 [Compound 69] | 14%

SMILES | % Maximum Stimulation Compared to Oxotremorine-M
O=C(NC1c2cc(N=CN3CCCC3)ccc2CC1O)c1cccc(Cl)c1Cl (stereo not drawn) [Compound 31] | 45%
O=C(NC1c2cc(N=CN3CCCC3)ccc2CC1O)c1cccnc1Cl (stereo not drawn) [Compound 12] | 26%
COc1cccc(C(=O)NC2c3cc(N=CN4CCCC4)ccc3CC2O)c1 (stereo not drawn) [Compound 34] | 45%
O=C(N[C@@H]1c2cc(N=CN3CCCCC3)ccc2C[C@H]1O)c1cc(F)cc(F)c1 [Compound 98] | 73%
CCCc1ccc(C(=O)NC2c3cc(N=CN4CCCC4)ccc3CC2O)cc1 (stereo not drawn) [Compound 26] | <20%
O=C(NC1c2cc(N=CN3CCCC3)ccc2CC1O)c1cc(F)c(F)c(F)c1F (stereo not drawn) [Compound 40] | 96%
CN(C)C=Nc1ccc2c(c1)[C@@H](NC(=O)c1sccc1Cl)[C@H](O)C2 [Compound 68] | 0%
O=C(NC1c2cc(N=CN3CCCC3)ccc2CC1O)c1cc(F)ccc1F (stereo not drawn) [Compound 32] | <20%
N#Cc1cccc(C(=O)NC2c3cc(N=CN4CCCC4)ccc3CC2O)c1 (stereo not drawn) [Compound 38] | <20%
CCCCc1ccc(C(=O)N[C@@H]2c3cc(N=CN(C)C)ccc3C[C@H]2O)cc1 [Compound 70] | 18%
CN(C)C=Nc1ccc2c(c1)[C@@H](NC(=O)c1ccc3ccccc3c1)[C@H](O)C2 [Compound 63] | 13%
O=C(NC1c2cc(N=CN3CCCC3)ccc2CC1O)c1ccc(F)c(F)c1F (stereo not drawn) [Compound 33] | 45%
CC(=Nc1ccc2c(c1)[C@@H](NC(=O)c1ccc(Cl)c(Cl)c1)[C@H](O)C2)N(C)C [Compound 76] | 130%
CN(C)C=Nc1ccc2c(c1)[C@@H](NC(=O)c1cccc3ccccc13)[C@H](O)C2 [Compound 71] | 95%
O=C(NC1c2cc(N=CN3CCCC3)ccc2CC1O)c1ccccc1Cl (stereo not drawn) [Compound 44] | 41%
CN(C)C=Nc1ccc2c(c1)[C@@H](NS(=O)(=O)c1ccc(Cl)c(Cl)c1)[C@H](O)C2 [Compound 72] | 4%
Cc1cc(C)c(C(=O)NC2c3cc(N=CN4CCCC4)ccc3CC2O)c(C)c1 (stereo not drawn) [Compound 27] | <20%
O=C(N[C@@H]1c2cc(N=CN3CCCC3)ccc2C[C@H]1O)c1c(Cl)cc(Cl)cc1Cl [Compound 47] | <20%
N#Cc1ccc(C(=O)NC2c3cc(N=CN4CCCC4)ccc3CC2O)cc1 (stereo not drawn) [Compound 13] | <20%

SMILES | % Maximum Stimulation Compared to Oxotremorine-M
O=C(NC1c2cc(N=CN3CCCC3)ccc2CC1O)c1cc(F)cc(F)c1 (stereo not drawn) [Compound 23] | <20%
COc1cc(OC)cc(C(=O)NC2c3cc(N=CN4CCCC4)ccc3CC2O)c1 (stereo not drawn) [Compound 36] | <20%
O=C(NC1c2cc(N=CN3CCCC3)ccc2CC1O)c1cc(F)c(F)c(F)c1 (stereo not drawn) [Compound 39] | 43%
Cc1cccc(C(=O)NC2c3cc(N=CN4CCCC4)ccc3CC2O)c1 (stereo not drawn) [Compound 37] | 76%
CN(C)C=Nc1ccc2c(c1)[C@@H](NC(=O)C(F)(F)F)[C@H](O)C2 [Compound 66] | 0%
CCCCc1ccc(C(=O)N[C@@H]2c3cc(N=CN4CCCC4)ccc3C[C@H]2O)cc1 [Compound 45] | <20%
CN(C)C=Nc1ccc2c(c1)[C@@H](NC(=O)c1ccc(C(F)(F)F)cc1)[C@H](O)C2 [Compound 75] | 6%
CN(C)C=Nc1ccc2c(c1)[C@@H](NC(=O)c1cc(Cl)cc(Cl)c1)[C@H](O)C2 [Compound 58] | 74%
CN(C)C=Nc1ccc2c(c1)[C@@H](NC(=O)c1cc(C(F)(F)F)cc(C(F)(F)F)c1)[C@H](O)C2 [Compound 60] | 100%
O=C(N[C@@H]1c2cc(N=CN3CCCC3)ccc2C[C@H]1O)c1c(Cl)cccc1Cl [Compound 46] | 154%
O=C(CSc1ccccc1)NC1c2cc(N=CN3CCCC3)ccc2CC1O (stereo not drawn) [Compound 28] | <20%
CN(C)C=Nc1ccc2c(c1)[C@@H](NC(=O)c1ccccc1)[C@H](O)C2 [Compound 57] | 5%
O=C(NC1c2cc(N=CN3CCCC3)ccc2CC1O)c1ccc2ccccc2c1 (stereo not drawn) [Compound 17] | 56%
O=C(NC1c2cc(N=CN3CCCC3)ccc2CC1O)c1cccs1 (stereo not drawn) [Compound 21] | 23%
O=C(NC1c2cc(N=CN3CCCC3)ccc2CC1O)c1cccc(F)c1 (stereo not drawn) [Compound 30] | <20%
O=C(NC1c2cc(N=CN3CCCC3)ccc2CC1O)C(F)(F)F (stereo not drawn) [Compound 19] | <20%
CCCCOc1ccc(C(=O)N[C@@H]2c3cc(N=CN(C)C)ccc3C[C@H]2O)cc1 [Compound 59] | 22%
O=C(NC1c2cc(N=CN3CCCC3)ccc2CC1O)c1c(F)ccc(F)c1F (stereo not drawn) [Compound 29] | <20%
CN(C)C=Nc1ccc2c(c1)[C@@H](NC(=O)c1cc(F)cc(C(F)(F)F)c1)[C@H](O)C2 [Compound 64] | 52%
